Target: T1, human Werner helicase (WRN-BV08, Uniprot Q14191, amino acids 517-1235 with L1074F point mutation) (Homo sapiens, UniProt Q14191, L1074F)
T1 construct: Uniprot Q14191, amino acids 517-1235 with L1074F point mutation; TEV-cleavable 8×His (C, cleaved yes); made in house; host or cells: Sf9 insect cells (baculovirus)
Assay: WRN (BV08) ADP-Glo Assay
Type: biochemical
Conditions: 0.15 nM WRN, 5 μM ATP, 0.1 nM DNA duplex, 15 min preincubation, 60 min at 25° C., pH 7.5, 1% DMSO; read-out: ADP-Glo_hWRN_IC50
In short: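 ADP produced by WRN helicase fragment 517-1235 (L1074F, baculovirus/Sf9, untagged) read by ADP-Glo luminescence after 60 min at 25 °C with 5 μM ATP and 0.1 nM duplex DNA, following 15 min compound preincubation. Final enzyme 0.15 nM in Bicine pH 7.5 buffer, 1% DMSO; 20 μM NSC-617145 defined full inhibition.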

T1 sequence (Q14191 with tags, fused parts or gaps L1074F limits assumed): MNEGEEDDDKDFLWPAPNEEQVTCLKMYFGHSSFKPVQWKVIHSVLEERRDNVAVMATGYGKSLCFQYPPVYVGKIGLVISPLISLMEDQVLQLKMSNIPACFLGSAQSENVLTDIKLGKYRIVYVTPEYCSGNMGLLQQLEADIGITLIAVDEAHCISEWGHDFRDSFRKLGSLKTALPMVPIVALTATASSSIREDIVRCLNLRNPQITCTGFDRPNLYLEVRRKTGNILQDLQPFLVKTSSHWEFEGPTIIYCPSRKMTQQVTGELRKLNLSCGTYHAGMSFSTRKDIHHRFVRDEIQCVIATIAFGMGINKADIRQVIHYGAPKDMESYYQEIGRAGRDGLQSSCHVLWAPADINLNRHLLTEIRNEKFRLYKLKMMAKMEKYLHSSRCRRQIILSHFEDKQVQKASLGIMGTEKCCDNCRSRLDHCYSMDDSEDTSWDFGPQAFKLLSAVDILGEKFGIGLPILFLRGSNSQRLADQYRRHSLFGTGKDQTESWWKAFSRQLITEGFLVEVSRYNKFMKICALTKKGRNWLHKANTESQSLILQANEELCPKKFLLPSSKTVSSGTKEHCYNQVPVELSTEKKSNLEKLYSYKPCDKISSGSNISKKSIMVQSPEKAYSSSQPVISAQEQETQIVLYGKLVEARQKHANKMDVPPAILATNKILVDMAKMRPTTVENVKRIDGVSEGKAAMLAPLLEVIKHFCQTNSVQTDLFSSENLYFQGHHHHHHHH

Structure (SMILES) | IC50 [µM]
COc1cc(CN(C(=O)C(OC2CS(=O)(=O)C2)c2ccc(-c3ccc(F)c(F)c3)cc2F)[C@@H]2C=CS(=O)(=O)C2)ccn1 (stereo partly drawn) [I-833, 2-[(1,1-dioxo-1lambda6-thietan-3-yl)oxy]-N-[(3R)-1,1-dioxo-2,3-dihydro-1lambda6-thiophen-3-yl]-N-[(2-methoxypyridin-4-yl)methyl]-2-{3,3′,4′-trifluoro-[1,1′-biphenyl]-4-yl}acetamide] | 10 to 50
Cc1cccn1-c1ccc(CC(=O)N(Cc2ccc(C(=O)N3CCN(C(=O)CCCc4cn(Cc5ccc(NC(=O)CCOCCOCCOCCOCCNC(=O)CCCC[C@@H]6SC[C@@H]7NC(=O)N[C@@H]76)cn5)nn4)CC3)cc2)C2C=CS(=O)(=O)C2)c(F)c1 (stereo partly drawn) [II-2, 1-{5-[(3aS,4S,6aR)-2-oxo-hexahydro-1H-thieno[3,4-d]imidazol-4-yl]pentanamido}-N-{6-[(4-{4-[4-(4-{[N-(1,1-dioxo-2,3-dihydro-1lambda6-thiophen-3-yl)-2-[2-fluoro-4-(2-methyl-1H-pyrrol-1-yl)phenyl]acetamido]methyl}benzoyl)piperazin-1-yl]-4-oxobutyl}-1H-1,2,3-triazol-1-yl)methyl]pyridin-3-yl}-3,6,9,12-tetraoxapentadecan-15-amide] | 0.5 to 5
O=C(CCCC[C@@H]1SC[C@@H]2NC(=O)N[C@@H]21)NCCOCCOCCOCCOCCC(=O)Nc1ccc(Cn2cc(CCCC(=O)N3CCN(C(=O)c4ccc(CN(C(=O)Cc5ccc(-n6cccc6)cc5F)C5C=CS(=O)(=O)C5)cc4)CC3)nn2)nc1 (stereo partly drawn) [II-3, 1-{5-[(3aS,4S,6aR)-2-oxo-hexahydro-1H-thieno[3,4-d]imidazol-4-yl]pentanamido}-N-{6-[(4-{4-[4-(4-{[N-(1,1-dioxo-2,3-dihydro-1lambda6-thiophen-3-yl)-2-[2-fluoro-4-(1H-pyrrol-1-yl)phenyl]acetamido]methyl}benzoyl)piperazin-1-yl]-4-oxobutyl}-1H-1,2,3-triazol-1-yl)methyl]pyridin-3-yl}-3,6,9,12-tetraoxapentadecan-15-amide] | 10 to 50
O=C(CCCC[C@@H]1SC[C@@H]2NC(=O)N[C@@H]21)NCCOCCOCCOCCOCCOCCOCCC(=O)N1CCN(Cc2ccc(CN(C(=O)Cc3ccc(-n4cccc4)cc3F)C3C=CS(=O)(=O)C3)cc2)CC1 (stereo partly drawn) [II-4, 5-[(3aS,4S,6aR)-2-oxo-hexahydro-1H-thieno[3,4-d]imidazol-4-yl]-N-(21-{4-[(4-{[N-(1,1-dioxo-2,3-dihydro-1lambda6-thiophen-3-yl)-2-[2-fluoro-4-(1H-pyrrol-1-yl)phenyl]acetamido]methyl}phenyl)methyl]piperazin-1-yl}-21-oxo-3,6,9,12,15,18-hexaoxahenicosan-1-yl)pentanamide] | 10 to 50

From US20260297070A1, “CYCLIC [COMPOUND LEFT OUT] WRN INHIBITORS” (Nimbus Wadjet, Inc., priority 2023, published 2026)
